Structures are written as SMILES.

Common to all, as to type: functional
Assay [1] relates to Rattus norvegicus. Kind of assay: Antinidatory effect was measured in the rat, relative to that of prostaglandin F2-alpha (ED50 = 1.3 (0.9-1.87)mg/kg).
In assay [2] the test system is Rattus norvegicus. Kind of assay: Antinidatory effect was measured in the rat, relative to that of prostaglandin F2alpha (ED50 = 1.3 (0.9-1.87) mg/kg); Range 200-400.
Assay [3] deals with Rattus norvegicus. Kind of assay: Antinidatory effect was measured in the rat, relative to that of prostaglandin F2-alpha (ED50 = 1.3 (0.9-1.87) mg/kg); Range 2-4.
Assay [4] deals with Rattus norvegicus. Nature of the assay: Antinidatory effect was measured in the rat, relative to that of prostaglandin F2-alpha (ED50 = 1.3 (0.9-1.87) mg/kg); Range 4-8.

With `COC(=O)/C=C/C/C=C\C[C@@H]1[C@@H](/C=C/[C@@H](O)COc2ccc(Cl)cc2)[C@H](O)C[C@@H]1O`, the Relative activity in the assay on Rattus norvegicus [1] came out at 100. In the assay with Rattus norvegicus [1], `O=C(O)/C=C/CCCC[C@@H]1[C@@H](/C=C/[C@@H](O)COc2cccc(C(F)(F)F)c2)[C@H](O)C[C@@H]1O` displayed a Relative activity of 4.

`COC(=O)/C=C/C/C=C\C[C@@H]1[C@@H](/C=C/[C@@H](O)COc2ccccc2)[C@H](O)C[C@@H]1O` displayed a Relative activity with Rattus norvegicus [2] of 200. Turning to `COC(=O)CC=C/C=C\C[C@@H]1[C@@H](/C=C/[C@@H](O)COc2ccccc2)[C@H](O)C[C@@H]1O`, the Relative activity with Rattus norvegicus [1] is given as 1200. Same read-out and setting: to `COC(=O)/C=C/C/C=C\C[C@@H]1[C@@H](/C=C/[C@@H](O)COc2cccc(C(F)(F)F)c2)[C@H](O)C[C@@H]1O` belongs 100; to `COC(=O)/C=C/C/C=C/C[C@@H]1[C@@H](/C=C/[C@@H](O)COc2cccc(Cl)c2)[C@H](O)C[C@@H]1O`, 100; to `COC(=O)CCC/C=C\C[C@@H]1[C@@H](/C=C/[C@@H](O)COc2cccc(C(F)(F)F)c2)[C@H](O)C[C@@H]1O`, 100. Still for that read-out and setting: to `COC(=O)C/C=C/CCC[C@@H]1[C@@H](/C=C/[C@@H](O)COc2ccccc2)[C@H](O)C[C@@H]1O` belongs 40; to `O=C(O)/C=C/C/C=C\C[C@@H]1[C@@H](/C=C/[C@@H](O)COc2cccc(Cl)c2)[C@H](O)C[C@@H]1O`, 200.

`O=C(O)/C=C\CCCC[C@@H]1[C@@H](/C=C/[C@@H](O)COc2cccc(C(F)(F)F)c2)[C@H](O)C[C@@H]1O`: the Relative activity with Rattus norvegicus [3] was 2. Take `COC(=O)CCC/C=C\C[C@@H]1[C@@H](/C=C/[C@@H](O)COc2cccc(Cl)c2)[C@H](O)C[C@@H]1O`: the Relative activity with Rattus norvegicus [1] was found to be 200. Same read-out and setting: next, `COC(=O)C/C=C/C=C/C[C@@H]1[C@@H](/C=C/[C@@H](O)COc2ccccc2)[C@H](O)C[C@@H]1O`: 200. Still for that read-out and setting: to `COC(=O)C/C=C/C=C\C[C@@H]1[C@@H](/C=C/[C@@H](O)COc2cccc(Cl)c2)[C@H](O)C[C@@H]1O` belongs 800. For `COC(=O)C/C=C/C=C\C[C@@H]1[C@@H](/C=C/[C@@H](O)COc2ccc(Cl)cc2)[C@H](O)C[C@@H]1O`, the Relative activity with Rattus norvegicus [2] is 200. In the case of `COC(=O)/C=C/C=C/CC[C@@H]1C(/C=C/[C@@H](O)COc2ccccc2)[C@H](O)C[C@@H]1O` (some centres not stated), the Relative activity in the assay on Rattus norvegicus [1] is recorded as 20. With `COC(=O)/C=C/C=C/CC[C@@H]1C(/C=C/[C@@H](O)COc2cccc(Cl)c2)[C@H](O)C[C@@H]1O` (some centres not stated), the Relative activity with Rattus norvegicus [4] is 4.

As to `COC(=O)C/C=C/C=C\C[C@@H]1[C@@H](/C=C/[C@@H](O)COc2ccccc2)[C@H](O)C[C@@H]1O`, the Relative activity in the assay with Rattus norvegicus [1] came to 800. Still for that read-out and setting: next, `COC(=O)C(CC/C=C\C[C@@H]1[C@@H](/C=C/[C@@H](O)COc2cccc(Cl)c2)[C@H](OC2CCCCO2)C[C@@H]1OC1CCCCO1)[Se]c1ccccc1` (some centres not stated): 1. As to `COC(=O)CCC/C=C\C[C@@H]1[C@@H](/C=C/[C@@H](O)COc2ccccc2)[C@H](O)C[C@@H]1O`, in the assay on Rattus norvegicus [2], the Relative activity is on record as 200. For the compound `COC(=O)C/C=C/C=C/C[C@@H]1[C@@H](/C=C/[C@@H](O)COc2cccc(Cl)c2)[C@H](O)C[C@@H]1O`, in the assay on Rattus norvegicus [1], the Relative activity was determined as 100. `COC(=O)C/C=C/C=C\C[C@@H]1[C@@H](/C=C/[C@@H](O)COc2cccc(C(F)(F)F)c2)[C@H](O)C[C@@H]1O`: in the assay on Rattus norvegicus [1], the Relative activity came to 100. Regarding `COC(=O)CC=C/C=C\C[C@@H]1[C@@H](/C=C/[C@@H](O)COc2cccc(Cl)c2)[C@H](O)C[C@@H]1O`, the Relative activity in the assay with Rattus norvegicus [1] is 600.

The record behind these values is ChEMBL document CHEMBL1121435, “Prostaglandin analogues possessing antinidatory effects. 2. Modification of the alpha chain” (1980).
